Data taken from US20230046947A1, “REACTIVE CONJUGATES” (Debiopharm Research & Manufacturing S.A., priority 2019, published 2023).
Where a SMILES comes first, the peptide text is derived from it. Bridges are numbered along the chain shown (N, C = ends). Where no end group is shown, it is not given here. [ ]: non-standard residue; d: D form. PEG20 = NCCOCCOCCOCCOCCOCCOCCOCCOCCOCCOCCOCCOCCOCCOCCOCCOCCOCCOCCOCCOCCC(=O)O

Target: T1, Fc region of trastuzumab (Homo sapiens, UniProt P01857)
T1 construct: made in house; host or cells: recombinant CHO cell lines
Assay: Competitive FP binding assay against Fc-III-FAM
Conditions: for binding to the Fc region of trastuzumab (in words): competitive FP against Fc-III-FAM
Procedure: The competitive FP measurements were performed on SpectraMax Paradigm Multi-Mode Detection Platform (Molecular Devices) in flat-bottom 384-well Corning microplates (Merck KGaA), using excitation and emission wavelengths of 485 nm and 535 nm, respectively. The acquisition time was 700 milliseconds and the read height was 1 mm. All reagents used in the assay were diluted in PBS containing 0.05% Tween 20.
The mixture was incubated at 27° C. for 15 min and the fluorescence signal was red on a Spectramax Paradigm. All sample preparations were done in PBS pH 7.4 or 7.0 containing 0.05% Tween. Each experiment was performed in triplicate.

IC50 [µM]	binding to the Fc region of trastuzumab (in words)	Compound
10.7 ± 11.9	impaired peptide binding	CC(C)C[C@H](NC(=O)[C@H](Cc1c[nH]cn1)NC(=O)[C@H](Cc1c[nH]c2ccccc12)NC(=O)[C@H](C)NC(=O)[C@H](C)NC(=O)[C@H](CC(=O)O)NC(=O)CCOCCOCCOCCOCCOCCOCCOCCOCCOCCOCCOCCOCCOCCOCCOCCOCCOCCOCCOCCOCCN)C(=O)NCC(=O)N[C@@H](CCC(=O)O)C(=O)N[C@@H](CC(C)C)C(=O)N[C@H](C(=O)N[C@@H](Cc1c[nH]c2ccccc12)C(=O)N[C@@H](C)C(=O)N[C@H](C(N)=O)[C@@H](C)O)C(C)C [Compound 16] (H-[PEG20]DAAWHLGELVWAT-NH2)
0.061 ± 0.033	high affinity	CC(C)C[C@@H]1NC(=O)[C@H](Cc2c[nH]cn2)NC(=O)[C@H](Cc2c[nH]c3ccccc23)NC(=O)[C@H](C)NC(=O)[C@@H](NC(=O)[C@H](CC(=O)O)NC(=O)[C@@H]2CCCN2C(=O)[C@@H]2CCCN2C(=O)[C@@H]2CCCN2C(=O)[C@@H]2CCCN2C(=O)[C@@H]2CCCN2C(=O)[C@@H]2CCCN2C(=O)CNC(=O)CNC(=O)[C@@H](N)CO)CSSC[C@@H](C(=O)N[C@H](C(N)=O)[C@@H](C)O)NC(=O)[C@H](Cc2c[nH]c3ccccc23)NC(=O)[C@H](C(C)C)NC(=O)[C@H](CC(C)C)NC(=O)[C@H](CCC(=O)O)NC(=O)CNC1=O [Compound 2] (H-SGGPPPPPPDCAWHLGELVWCT-NH2; disulfide 11-21 (inferred))
–	impaired peptide binding	NH2—(PEG)20—CH2CH2—CO—DCAWHLGELWACT—NH2 ([PEG20]DCAWHLGELWACT-NH2; disulfide 3-13 (inferred)) [Compound 15]
36.5 ± 15.6	–	CC(C)C[C@@H]1NC(=O)[C@H](Cc2c[nH]cn2)NC(=O)[C@H](Cc2c[nH]c3ccccc23)NC(=O)[C@H](C)NC(=O)[C@@H](NC(=O)[C@@H](N)CC(=O)O)CSSC[C@@H](C(=O)N[C@H](C(N)=O)[C@@H](C)O)NC(=O)[C@H](C)NC(=O)[C@H](Cc2c[nH]c3ccccc23)NC(=O)[C@H](CC(C)C)NC(=O)[C@H](CCC(=O)O)NC(=O)CNC1=O [Compound 13] (H-DCAWHLGELWACT-NH2; disulfide 2-12 (inferred))
